The source of these data is ChEMBL document CHEMBL6071140, “Ocotillol Derivatives Mitigate Retinal Ischemia-Reperfusion Injury by Regulating the Keap1/Nrf2/ARE Signaling Pathway” (J Med Chem, 2024).

Test system in the first data set: not listed separately
The data set is described as follows: Cytotoxicity against rat R28 cells assessed as decrease in cellular ATP content incubated for 24 hrs by CellTiter-Lumi Plus cell viability assay. The format is toxicity, cell-based. The settings on record: r28, 24 h.
As to `CC(C)(O)[C@H]1CC[C@@](C)([C@H]2CC[C@]3(C)[C@@H]2[C@H](O)C[C@@H]2[C@@]4(C)Cc5sc(NC(=O)c6ccccc6C(=O)O)nc5C(C)(C)[C@@H]4CC[C@]23C)O1`, the Activity entry is reported as “Non-Toxic”.

Take `CC(C)(O)[C@@H]1CC[C@@](C)([C@H]2CC[C@]3(C)[C@@H]2[C@H](O)C[C@@H]2[C@@]4(C)CC[C@H](OC(=O)CCC(=O)Nc5ccccc5N)C(C)(C)[C@@H]4CC[C@]23C)O1`: the Activity entry is “Non-Toxic”. In the case of `CC(C)(O)[C@@H]1CC[C@@](C)([C@H]2CC[C@]3(C)[C@@H]2[C@H](O)C[C@@H]2[C@@]4(C)Cc5sc(NC(=O)CC(=O)O)nc5C(C)(C)[C@@H]4CC[C@]23C)O1`, the Activity result is reported as “Non-Toxic”. As to `CC(C)(O)[C@H]1CC[C@@](C)([C@H]2CC[C@]3(C)[C@@H]2[C@H](O)C[C@@H]2[C@@]4(C)Cc5c(C(=O)NCCCCCCN)noc5C(C)(C)[C@@H]4CC[C@]23C)O1`, the Activity result is on record as “Non-Toxic”. On the same count and under the same terms, in the case of `CC(C)(O)[C@@H]1CC[C@@](C)([C@H]2CC[C@]3(C)[C@@H]2[C@H](O)C[C@@H]2[C@@]4(C)Cc5c(C(=O)Nc6ccc(N)cc6)noc5C(C)(C)[C@@H]4CC[C@]23C)O1` it was “Non-Toxic”; in that of `CC(C)(O)[C@@H]1CC[C@@](C)([C@H]2CC[C@]3(C)[C@@H]2[C@H](O)C[C@@H]2[C@@]4(C)Cc5c(C(=O)NCCCCN)noc5C(C)(C)[C@@H]4CC[C@]23C)O1`, “Non-Toxic”; in that of `CC(C)(O)[C@@H]1CC[C@@](C)([C@H]2CC[C@]3(C)[C@@H]2[C@H](O)C[C@@H]2[C@@]4(C)CC[C@H](OC(=O)CCC(=O)O)C(C)(C)[C@@H]4CC[C@]23C)O1`, “Non-Toxic”. As for `CCOC(=O)c1noc2c1C[C@]1(C)[C@H]3C[C@@H](O)[C@@H]4[C@@H]([C@]5(C)CC[C@H](C(C)(C)O)O5)CC[C@@]4(C)[C@]3(C)CC[C@H]1C2(C)C`, the Activity result was “Non-Toxic”. On to `CC(C)(O)[C@H]1CC[C@@](C)([C@H]2CC[C@]3(C)[C@@H]2[C@H](O)C[C@@H]2[C@@]4(C)Cc5c(C(=O)O)noc5C(C)(C)[C@@H]4CC[C@]23C)O1`, for which the Activity entry was “Non-Toxic”. On to `CC(C)(O)[C@@H]1CC[C@@](C)([C@H]2CC[C@]3(C)[C@@H]2[C@H](O)C[C@@H]2[C@@]4(C)CC[C@H](OC(=O)CCC(=O)Nc5cccc(N)c5)C(C)(C)[C@@H]4CC[C@]23C)O1`, for which the Activity entry is given as “Non-Toxic”. For the compound `CC(C)(O)[C@@H]1CC[C@@](C)([C@H]2CC[C@]3(C)[C@@H]2[C@H](O)C[C@@H]2[C@@]4(C)Cc5sc(NC(=O)CCCSSCCCC(=O)O)nc5C(C)(C)[C@@H]4CC[C@]23C)O1`, the Activity result was “Non-Toxic”. With `CC(C)(O)[C@H]1CC[C@@](C)([C@H]2CC[C@]3(C)[C@@H]2[C@H](O)C[C@@H]2[C@@]4(C)CC[C@H](OC(=O)CCC(=O)NCCCN)C(C)(C)[C@@H]4CC[C@]23C)O1`, the Activity result is recorded as “Non-Toxic”. In the case of `CC(C)(O)[C@@H]1CC[C@@](C)([C@H]2CC[C@]3(C)[C@@H]2[C@H](O)C[C@@H]2[C@@]4(C)Cc5sc(NC(=O)CCCC(=O)O)nc5C(C)(C)[C@@H]4CC[C@]23C)O1`, the Activity entry is recorded as “Non-Toxic”. Turning to `CC(C)(O)[C@H]1CC[C@@](C)([C@H]2CC[C@]3(C)[C@@H]2[C@H](O)C[C@@H]2[C@@]4(C)CC[C@H](O)C(C)(C)[C@@H]4CC[C@]23C)O1`, the Activity result was “Non-Toxic”.

As to `CC(C)(O)[C@H]1CC[C@@](C)([C@H]2CC[C@]3(C)[C@@H]2[C@H](O)C[C@@H]2[C@@]4(C)Cc5c(C(=O)NCCCCN)noc5C(C)(C)[C@@H]4CC[C@]23C)O1`, the Activity entry is “Non-Toxic”. `CC(C)(O)[C@H]1CC[C@@](C)([C@H]2CC[C@]3(C)[C@@H]2[C@H](O)C[C@@H]2[C@@]4(C)Cc5c(C(=O)NCCCN)noc5C(C)(C)[C@@H]4CC[C@]23C)O1`: the Activity entry is “Non-Toxic”.

As for `CC(C)(O)[C@@H]1CC[C@@](C)([C@H]2CC[C@]3(C)[C@@H]2[C@H](O)C[C@@H]2[C@@]4(C)Cc5c(C(=O)O)noc5C(C)(C)[C@@H]4CC[C@]23C)O1`, the Activity entry is “Non-Toxic”. In the case of `CC(C)(O)[C@H]1CC[C@@](C)([C@H]2CC[C@]3(C)[C@@H]2[C@H](O)C[C@@H]2[C@@]4(C)Cc5c(C(=O)Nc6ccc(N)cc6)noc5C(C)(C)[C@@H]4CC[C@]23C)O1`, the Activity result is given as “Non-Toxic”.

Turning to `CC(C)(O)[C@H]1CC[C@@](C)([C@H]2CC[C@]3(C)[C@@H]2[C@H](O)C[C@@H]2[C@@]4(C)Cc5sc(N)nc5C(C)(C)[C@@H]4CC[C@]23C)O1`, the Activity result is “Non-Toxic”. Turning to `CC(C)(O)[C@@H]1CC[C@@](C)([C@H]2CC[C@]3(C)[C@@H]2[C@H](O)C[C@@H]2[C@@]4(C)Cc5c(C(=O)NCCCCCCN)noc5C(C)(C)[C@@H]4CC[C@]23C)O1`, the Activity result was “Non-Toxic”.

Regarding `CC(C)(O)[C@H]1CC[C@@](C)([C@H]2CC[C@]3(C)[C@@H]2[C@H](O)C[C@@H]2[C@@]4(C)CC[C@H](OC(=O)CCC(=O)Nc5ccccc5N)C(C)(C)[C@@H]4CC[C@]23C)O1`, the Activity entry is “Non-Toxic”. For `CC(C)(O)[C@H]1CC[C@@](C)([C@H]2CC[C@]3(C)[C@@H]2[C@H](O)C[C@@H]2[C@@]4(C)CC[C@H](OC(=O)CCC(=O)O)C(C)(C)[C@@H]4CC[C@]23C)O1`, the Activity result was “Non-Toxic”. Take `CC(C)(O)[C@H]1CC[C@@](C)([C@H]2CC[C@]3(C)[C@@H]2[C@H](O)C[C@@H]2[C@@]4(C)Cc5sc(NC(=O)CC(=O)O)nc5C(C)(C)[C@@H]4CC[C@]23C)O1`: the Activity result is “Non-Toxic”. On to `CC(C)(O)[C@H]1CC[C@@](C)([C@H]2CC[C@]3(C)[C@@H]2[C@H](O)C[C@@H]2[C@@]4(C)Cc5sc(NC(=O)CCCC(=O)O)nc5C(C)(C)[C@@H]4CC[C@]23C)O1`, for which the Activity result is “Non-Toxic”. Same read-out and setting: next, `CC(C)(O)[C@H]1CC[C@@](C)([C@H]2CC[C@]3(C)[C@@H]2[C@H](O)C[C@@H]2[C@@]4(C)CC[C@H](OC(=O)CCC(=O)Nc5ccc(N)cc5)C(C)(C)[C@@H]4CC[C@]23C)O1`: “Non-Toxic”; `CCOC(=O)c1noc2c1C[C@]1(C)[C@H]3C[C@@H](O)[C@@H]4[C@@H]([C@]5(C)CC[C@@H](C(C)(C)O)O5)CC[C@@]4(C)[C@]3(C)CC[C@H]1C2(C)C`: “Non-Toxic”; `CC(C)(O)[C@@H]1CC[C@@](C)([C@H]2CC[C@]3(C)[C@@H]2[C@H](O)C[C@@H]2[C@@]4(C)Cc5sc(NC(=O)c6ccccc6C(=O)O)nc5C(C)(C)[C@@H]4CC[C@]23C)O1`: “Non-Toxic”. On to `CC(C)(O)[C@@H]1CC[C@@](C)([C@H]2CC[C@]3(C)[C@@H]2[C@H](O)C[C@@H]2[C@@]4(C)CC[C@H](OC(=O)CCC(=O)NCCCN)C(C)(C)[C@@H]4CC[C@]23C)O1`, for which the Activity entry is listed as “Non-Toxic”.

Take `CC(C)(O)[C@H]1CC[C@@](C)([C@H]2CC[C@]3(C)[C@@H]2[C@H](O)C[C@@H]2[C@@]4(C)Cc5sc(NC(=O)CCCSSCCCC(=O)O)nc5C(C)(C)[C@@H]4CC[C@]23C)O1`: the Activity entry is recorded as “Non-Toxic”. `CC(C)(O)[C@@H]1CC[C@@](C)([C@H]2CC[C@]3(C)[C@@H]2[C@H](O)C[C@@H]2[C@@]4(C)Cc5c(C(=O)NCCCN)noc5C(C)(C)[C@@H]4CC[C@]23C)O1`: the Activity entry was “Non-Toxic”. `CC(C)(O)[C@@H]1CC[C@@](C)([C@H]2CC[C@]3(C)[C@@H]2[C@H](O)C[C@@H]2[C@@]4(C)CC[C@H](OC(=O)CCC(=O)Nc5ccc(N)cc5)C(C)(C)[C@@H]4CC[C@]23C)O1`: the Activity entry is recorded as “Non-Toxic”. In the case of `CC(C)(O)[C@H]1CC[C@@](C)([C@H]2CC[C@]3(C)[C@@H]2[C@H](O)C[C@@H]2[C@@]4(C)CC[C@H](OC(=O)CCC(=O)Nc5cccc(N)c5)C(C)(C)[C@@H]4CC[C@]23C)O1`, the Activity entry is “Non-Toxic”. For the compound `CC(C)(O)[C@@H]1CC[C@@](C)([C@H]2CC[C@]3(C)[C@@H]2[C@H](O)C[C@@H]2[C@@]4(C)Cc5sc(N)nc5C(C)(C)[C@@H]4CC[C@]23C)O1`, the Activity entry is reported as “Non-Toxic”. With `CC(C)(O)[C@@H]1CC[C@@](C)([C@H]2CC[C@]3(C)[C@@H]2[C@H](O)C[C@@H]2[C@@]4(C)CC[C@H](O)C(C)(C)[C@@H]4CC[C@]23C)O1`, the Activity result is “Non-Toxic”.

Another data set concerns R28. Kind of data set: Antioxidant activity in rat R28 cells assessed as protection against OGD induced cytotoxicity by measuring cellular ATP level preincubated under OGD condition for 8 hrs followed by reoxygenation for 4 hrs by CellTiter-Lumi Plus cell viability assay. Format: functional, cell-based. To be noted: dose 0.1-40 µM, time 12.0 hrs.
As for `CC(C)(O)[C@H]1CC[C@@](C)([C@H]2CC[C@]3(C)[C@@H]2[C@H](O)C[C@@H]2[C@@]4(C)CC[C@H](O)C(C)(C)[C@@H]4CC[C@]23C)O1`, the Activity result is “Dose-Dependent Effect”.
